This is an account of results in patent publication US20260101887A1, “AN EMULSIFIABLE CONCENTRATE HAVING A LACTONE-BASED SOLVENT SYSTEM” (priority 2022, published 2026).

For data set [1] the following is noted: solvent in water, visual assessment of undissolved solvent. As for the experimental part: Herein, various amounts of solvent and water were mixed with vigorous shaking in a glass-stoppered graduated cylinder or separating funnel, followed by standing for at least 30 min to enable separation. […] This method can be repeated with various amounts of solvent and water to enable the determination of the water-solubility of the solvent.

Another data set has as its system Abutilon theophrasti. Kind of data set: Rate of penetration measured by Fluorescence Index enhancement (PS II inhibitor Na Bentazone into leaf). In kind it is in vivo. More on the design: scale not given here. The note with it: Na B + E + S: 0.64% w/w Na Bentazone, 0.1% emulsifier, 0.9% solvent in CIPAC D water; two 5 μl droplets on leaf, 1 h. The text has this: PS II inhibitors effectively block the chlorophyll photosynthetic pathways within the leaf, resulting in enhanced fluorescence from the non-adsorbed incident light. The resulting emitted light can be measured at selected time intervals, enabling the determination of the rate of uptake of the PS II inhibitor and thus penetration effect of the selected adjuvant.
The following experiments were on the broadleaf weed Abutilon theophrasti (EPPO code ABUTH) at a Biologische Bundesanstalt, Bundessortenamt und Chemische Industrie (BBCH) growth stage 13 to 14.
The penetration experiments are conducted via the deposition of two droplets (5 μl) of the herbicide/emulsifier/lactone-based solvent formulation onto the leaf surface. The droplets are allowed to stand on the leaf surface for 1 h, after which a fluorescence image of the exposed leaf surface is recorded using the PAM chlorophyll fluorescence imaging system (Imaging PAM, Heinz-Walz GmbH, Germany). The resulting “Total Fluorescence” and “Fluorescence Area” are then quantified via the analysis of the recorded fluorescence image using image analysis software. This enables the calculation of the “Fluorescence Index”:
The “Fluorescence Index” is a therefore a direct measurement of the penetration of the active ingredient into the plant leaf and can thus be used to measure enhanced penetration via the use of selected adjuvants. Identical experiments are conducted on 7 further leaves using the same formulation to account for biological variability and experimental error.

A further data set has as its system Soya plants. Kind of data set: Phytotoxicity determination on Soya. In kind it is in vivo. The note with it: 200 L/ha of 1% w/w emulsion (EC 90% w/w solvent, 10% w/w emulsifier); after 14 days; visual scale 0% to 100%. As for the experimental part: Soya plants grown under standard greenhouse conditions in the growth stage 13 were treated with aqueous emulsions in a spray cabin. The resulting plant spray dosage represented an application rate of 200 L/ha of 1% w/w emulsion, corresponding to the application of 2 L/ha of the emulsifiable concentrate. […] The experimental period lasted 14 days, during which time the Soya plants were given optimum watering, nutrients, and light.
An assessment of 1 to 10% phytotoxicity is the limit of acceptable plant damage by farmers.

On to `CCCCCC1CCC(=O)O1` (centres unmarked) [Gamma-nonalactone], for which, in data set [1], the Water solubility turned out to be 0.2 % w/w. Also, the “Fluorescence Index” value in the data set on Abutilon theophrasti came to 16.44. The same compound came in with a phytotoxicity in the data set on Soya plants of 0%.
The compound `CCCC(C)C1OC(=O)CC1C` (stereo not drawn) [Beta, delta-dimethyl- gamma-octalactone, Beta,delta-dimethyl-gamma-octalactone] had a Water solubility in data set [1] of no more than 0.2 % w/w.
In data set [1], `CCCC(C)C1CCC(=O)O1` (centres unmarked) [Delta-methyl-gamma- octalactone, Delta-methyl-gamma-octalactone] displayed a Water solubility of no more than 0.2 % w/w.
For `CCCCCCCCC1CCC(=O)O1` (centres unmarked) [Gamma-dodecalactone], the Water solubility in data set [1] is recorded as less than 0.02 % w/w.
In data set [1], `CCCCC1CCC(=O)O1` (centres unmarked) [Gamma-octalactone] came in with a Water solubility of 0.8 % w/w. Also, the “Fluorescence Index” value in the data set on Abutilon theophrasti came out at 8.80.
`CCCCCC1CCCC(=O)O1` (centres unmarked) [Delta-decalactone] displayed a Water solubility in data set [1] of 0.4 % w/w. For the same compound, in the data set on Abutilon theophrasti, the “Fluorescence Index” value is listed as 9.66.
Regarding `CCCCCCCC1CCC(=O)O1` (centres unmarked) [Gamma-undecalactone], the “Fluorescence Index” value in the data set with Abutilon theophrasti turned out to be 11.67.
With `CCCCCCCC1CCCC(=O)O1` (centres unmarked) [Delta-dodecalactone], the Water solubility in data set [1] stood at 0.07 % w/w. Moreover, the “Fluorescence Index” value with Abutilon theophrasti came to 15.21.
Turning to `CCCCCCCCCC(=O)N(C)C` [Dimethyl decanamide, reference compound], the phytotoxicity in the data set on Soya plants is on record as 50%.
For `CC1CCC(=O)O1` (centres unmarked) [Gamma-valerolactone], the Water solubility in data set [1] is on record as 100 % w/w. In addition, in the data set on Abutilon theophrasti, the “Fluorescence Index” value stood at 4.85.
The compound `CCCCC1CCCC(=O)O1` (centres unmarked) [Delta-nonalactone] had a Water solubility in data set [1] of 1.2 % w/w.
`CCC1CCC(=O)O1` (centres unmarked) [Gamma-hexalactone] returned a Water solubility in data set [1] of 8 % w/w. The “Fluorescence Index” value in the data set with Abutilon theophrasti was 6.11.
As to `CCCCC1OC(=O)CC1C` (stereo not drawn) [Beta-methyl-gamma-octalactone], the Water solubility in data set [1] is listed as no more than 0.2 % w/w.
In turn, `CCCCCCC1CCC(=O)O1` (centres unmarked) [Gamma-decalactone] gave a Water solubility in data set [1] of 0.1 % w/w. Moreover, the “Fluorescence Index” value with Abutilon theophrasti is reported as 14.13.
In data set [1], `CCCCCCCCC1CCCC(=O)O1` (centres unmarked) [Delta-tridecalactone] yielded a Water solubility of less than 0.1 % w/w.
